In the supplement of paper PMC11061612:

Key:
[1] = test system: HuCCT1 (Biliary Tract Carcinoma); assay: Bliss excess, mean over the matrix (fraction); higher = more synergy
Procedure, shortened: (§1)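 After 24 hours at 37°C and 5% CO2 in 1536-well plates, cells in DMEM/F12 or RPMI plus 10% FBS received two-drug dose matrices for 72 hours. Viability came from CellTiter-Glo 2.0 luminescence and was scaled as inhibition, anchored at 0 by vehicle wells and at 1 by blank wells. Combination Emax is taken as the second-highest inhibition in the matrix, and Bliss excess as the observed combination effect less EA + EB − EA·EB, with EA and EB the single-agent effects.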

[2] = test system: NCI-H524 (Small Cell Lung Carcinoma); assay: as above
Procedure, shortened: as §1

[3] = test system: SAS (Oral Cavity Carcinoma); assay: as above
Procedure, shortened: as §1

[4] = test system: A673 (Ewing's Sarcoma); assay: combination Emax (second highest fraction inhibited in the dose matrix, 72 h); higher = more inhibition; extreme values may be limits of the assay
Procedure, shortened: as §1

[5] = test system: BE-13 (T-Lymphoblastic Leukemia); assay: as above
Procedure, shortened: as §1

[6] = test system: HuCCT1 (Biliary Tract Carcinoma); assay: as above
Procedure, shortened: as §1

[7] = test system: KYAE-1 (Esophageal Adenocarcinoma); assay: as above
Procedure, shortened: as §1

[8] = test system: LOXIMVI (Melanoma); assay: as above
Procedure, shortened: as §1

[9] = test system: LS-123 (Colorectal Carcinoma); assay: as above
Procedure, shortened: as §1

[10] = test system: OVCAR-5 (Ovarian Carcinoma); assay: as above
Procedure, shortened: as §1

[11] = test system: BFTC-909 (Kidney Carcinoma); assay: Bliss excess, mean over the matrix (fraction); higher = more synergy
Procedure, shortened: as §1

[12] = test system: OE21 (Esophageal Squamous Cell Carcinoma); assay: as above
Procedure, shortened: as §1

[13] = test system: ALL-PO (B-Lymphoblastic Leukemia); assay: combination Emax (second highest fraction inhibited in the dose matrix, 72 h); higher = more inhibition; extreme values may be limits of the assay
Procedure, shortened: as §1

[14] = test system: L-428 (Hodgkin's Lymphoma); assay: as above
Procedure, shortened: as §1
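For Bliss excess, mean over the matrix in this document: after 72 h of two-drug dosing.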

Row | Structure (SMILES) | Bliss excess [1] | Bliss excess [2] | Bliss excess [3] | combination Emax [4] | combination Emax [5] | combination Emax [6] | combination Emax [7] | combination Emax [8] | combination Emax [9] | combination Emax [10] | Bliss excess [11] | Bliss excess [12] | combination Emax [13] | combination Emax [14]
1 | C[C@@H](Nc1cc(F)cc(F)c1)c1cc(C(=O)N(C)C)cc2c(=O)cc(N3CCOCC3)oc12 [AZD8186] + C1CN(CCC1(C(=O)N[C@@H](CCO)C2=CC=C(C=C2)Cl)N)C3=NC=NC4=C3C=CN4 [AZD5363] (first compound max 10 µM, 7x7, partner max 10 µM) | -0.0171 | -0.0342 | -0.0226 | 0.253 | 0.16 | 0.413 | 0.154 | 0.287 | 0.408 | 0.432 |  |  |  | 
2 | Cc1c2c(nn1C)CSCc1cc(n(C)n1)CSc1cc(c3ccccc3c1)OCCCc1c(C(=O)O)n(C)c3c-2c(Cl)ccc13 [AZD5991] + CC(=O)O[C@H]1C(=O)[C@@]2(C)[C@H]([C@H](OC(=O)c3ccccc3)[C@]3(O)C[C@H](OC(=O)[C@H](O)[C@@H](NC(=O)c4ccccc4)c4ccccc4)C(C)=C1C3(C)C)[C@]1(OC(C)=O)CO[C@@H]1C[C@@H]2O [Paclitaxel] (first compound max 1 µM, 7x7, partner max 3 µM) | -0.0164 | -0.0264 | 0.0067 | 0.95 | 0.852 | 0.549 | 0.175 | 0.755 | 0.463 | 0.707 |  |  |  | 
3 | C[C@@H]1COCCN1c1cc(C2([S@](C)(=N)=O)CC2)nc(-c2ccnc3[nH]ccc23)n1 [AZD6738] + C1CC(C1)(C(=O)[O-])C(=O)[O-].N.N.[Pt+2] [Carboplatin] (first compound max 10 µM, 7x7, partner max 10 µM) | -0.0477 | -0.0512 | -0.0459 | 0.781 | 0.737 | 0.683 | 0.0812 | 0.619 | 0.626 | 0.75 |  |  |  | 
4 | CS(=O)(=O)CCNCc1ccc(-c2ccc3ncnc(Nc4ccc(OCc5cccc(F)c5)c(Cl)c4)c3c2)o1 [Lapatinib] + Cn1cnc2c(F)c(Nc3ccc(Br)cc3Cl)c(C(=O)NOCCO)cc21 [Selumetinib] (first compound max 10 µM, 7x7, partner max 10 µM) | 0.0208 | -0.0534 | -0.049 | 0.343 | 0.887 | 0.801 | 0.83 | 0.717 | 0.677 | 0.655 |  |  |  | 
5 | O=C(c1cc(Cc2n[nH]c(=O)c3ccccc23)ccc1F)N1CCN(C(=O)C2CC2)CC1 [Olaparib] + COc1nnc2ccc(N3CCC(c4ccc(OCCN5CCN(C)C(=O)[C@H]5C)cc4)CC3)nn12 [AZD5153] (first compound max 10 µM, 7x7, partner max 1 µM) | -0.0637 | -0.0532 | -0.0771 | 0.578 | 0.648 | 0.456 | 0.156 | 0.864 | 0.359 | 0.449 |  |  |  | 
6 | C=CCn1c(=O)c2cnc(Nc3ccc(N4CCN(C)CC4)cc3)nc2n1-c1cccc(C(C)(C)O)n1 [AZD1775] + Nc1ccn([C@@H]2O[C@H](CO)[C@@H](O)C2(F)F)c(=O)n1 [Gemcitabine] (first compound max 1 µM, partner max 0.3 µM) | 0.0536 | 0.0443 | 0.0585 | 0.937 | 1 | 0.805 | 0.316 | 0.797 | 0.68 | 0.692 |  |  |  | 
7 | CCc1c2c(nc3ccc(O)cc13)-c1cc3c(c(=O)n1C2)COC(=O)[C@]3(O)CC [SN-38] + O=C(c1cc(Cc2n[nH]c(=O)c3ccccc23)ccc1F)N1CCN(C(=O)C2CC2)CC1 [Olaparib] (first compound max 0.3 µM, 7x7, partner max 10 µM) | 0.0046 | 0.0488 | 0.0501 | 1 | 0.965 | 0.662 | 0.118 | 0.784 | 0.55 | 0.637 | 0.0897 | -0.0198 | 0.981 | 0.94
8 | O=C(c1cc(Cc2n[nH]c(=O)c3ccccc23)ccc1F)N1CCN(C(=O)C2CC2)CC1 [Olaparib] + CN(CC[C@H](CSC1=CC=CC=C1)NC2=C(C=C(C=C2)S(=O)(=O)NC(=O)C3=CC=C(C=C3)N4CCC(CC4)[C@H](C5=CC=CC=C5C6=CC=C(C=C6)Cl)O)S(=O)(=O)C(F)(F)F)CCO [AZD4320] (first compound max 10 µM, 7x7, partner max 1 µM) | -0.0518 | 0.0085 | -0.0318 | 0.948 | 0.983 | 0.193 | 0.587 | 0.447 | 0.512 | 0.182 |  |  |  | 
